Laboratory results taken from patent US20220267308A1, “Modulators of Excitatory Amino Acid Transporters and Methods Using Same” (The Wistar Institute of Anatomy and Biology, priority 2019, published 2022).
Where two headings read alike, the source gives them in different places.

Assays:
[1] = system: cortical neurons; assay: neuroprotection in neuronal cultures, bi-laminar approach, OGD insult; format: cell-based; conditions: OGD for 20 min
Description: (§1) Top: Representative images (40× magnification) of 14 DIV cortical neurons in control conditions (FIG. 2A) or subjected to insult with 10 μM L-glutamate for 24 h (FIG. 2B). […] Bottom: Representative images of cortical neurons in control conditions (FIG. 2D) or subjected to insult with OGD for 20 min (FIG. 2E). […] Quantification performed 24 h after treatments in cultures stained for MAP-2 (green) and DAPI (blue). Surviving neurons were estimated by blind counting of 10 fields/coverslips, averages of triplicate determinations±SD (ANOVA followed by Dunnet's posthoc test, *p<0.05, **<0.01, p***<0.001, compared to control, #p<0.05, ###p<0.001, compared to insult).

[2] = system: cortical neurons; assay: neuroprotection in neuronal cultures, bi-laminar approach, L-glutamate insult; format: cell-based; conditions: 10 μM L-glutamate for 24 h
Description: as §1

[3] = molecular target: T1, EAAT2 (Homo sapiens, UniProt P43004); assay: glutamate uptake mediated by EAAT2-expressing COS-7 cells; conditions: for EAAT2 Efficacy: bottom number of the cell
[4] = molecular target: T1, EAAT2; assay: kinetic analysis of L-glutamate uptake in EAAT2-transfected COS-7 cells; format: cell-based; set-up: expressed in transfected cells; host or cells: COS-7; conditions: compound 10 nM, different concentrations of glutamate
[5] = pilocarpine in vivo model of epilepsy; conditions: osmotic pump 48 hours, final dose 4 mg/Kg, after pilocarpine 380 mg/Kg; p=0.0189
[6] = molecular target: T2, EAAT1 (Homo sapiens, UniProt P43003); assay: glutamate uptake mediated by EAAT1-expressing COS-7 cells; format: cell-based; conditions: for EAAT1 Efficacy: bottom number of the cell
T2 construct: expressed in transfected cells; host or cells: COS-7

[7] = molecular target: T3, EAAT3 (Homo sapiens, UniProt P43005); assay: glutamate uptake mediated by EAAT3-expressing COS-7 cells; format: cell-based; conditions: for EAAT3 EC50 (nM): top number of the cell
T3 construct: expressed in transfected cells; host or cells: COS-7
T3 sequence (P43005 1-524): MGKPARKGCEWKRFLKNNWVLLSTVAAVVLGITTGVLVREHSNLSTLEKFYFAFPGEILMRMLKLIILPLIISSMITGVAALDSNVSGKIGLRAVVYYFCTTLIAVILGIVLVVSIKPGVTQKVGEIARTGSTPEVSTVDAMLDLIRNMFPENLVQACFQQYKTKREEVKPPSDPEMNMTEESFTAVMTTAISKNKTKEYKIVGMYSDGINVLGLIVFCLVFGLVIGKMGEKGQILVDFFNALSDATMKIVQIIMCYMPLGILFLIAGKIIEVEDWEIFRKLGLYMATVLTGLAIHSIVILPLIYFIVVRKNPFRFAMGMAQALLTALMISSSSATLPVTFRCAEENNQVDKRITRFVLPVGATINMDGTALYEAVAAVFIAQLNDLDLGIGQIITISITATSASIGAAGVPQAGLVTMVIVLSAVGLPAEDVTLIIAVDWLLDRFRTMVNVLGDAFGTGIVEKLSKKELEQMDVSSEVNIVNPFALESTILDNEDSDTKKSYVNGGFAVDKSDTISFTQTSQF

[8] = SNL (spinal nerve ligation) model; conditions: p<0.01 compared to vehicle
[9] = system: neuron-glia cultures; assay: neuroprotection in mixed neuron-glia cultures; format: cell-based, rat
Text: Immunostaining against neuronal marker MAP-2 (green), glial maker GFAP (red), and nuclear marker DAPI (blue). Surviving neurons were estimated by blind counting of 10 fields/coverslips, averages of triplicate determinations±SD (ANOVA followed by Dunnet's posthoc test, ***p<0.001, compared to control, ###p<0.001, compared to insult). FIGS. 7A-7E show the in vitro neuroprotective properties of second and third generation compounds after glutamate and oxygen glucose deprivation insults in mixed neuron/glia cultures. […] Immunostaining against neuronal marker MAP-2 (green), glial maker GFAP (red), and nuclear marker DAPI (blue). Images taken with 30× magnification with a confocal microscope.

[10] = system: glia cells; conditions: for Km / Vmax: Glia

T2 sequence (P43003 whole entry, the tested form may be a part): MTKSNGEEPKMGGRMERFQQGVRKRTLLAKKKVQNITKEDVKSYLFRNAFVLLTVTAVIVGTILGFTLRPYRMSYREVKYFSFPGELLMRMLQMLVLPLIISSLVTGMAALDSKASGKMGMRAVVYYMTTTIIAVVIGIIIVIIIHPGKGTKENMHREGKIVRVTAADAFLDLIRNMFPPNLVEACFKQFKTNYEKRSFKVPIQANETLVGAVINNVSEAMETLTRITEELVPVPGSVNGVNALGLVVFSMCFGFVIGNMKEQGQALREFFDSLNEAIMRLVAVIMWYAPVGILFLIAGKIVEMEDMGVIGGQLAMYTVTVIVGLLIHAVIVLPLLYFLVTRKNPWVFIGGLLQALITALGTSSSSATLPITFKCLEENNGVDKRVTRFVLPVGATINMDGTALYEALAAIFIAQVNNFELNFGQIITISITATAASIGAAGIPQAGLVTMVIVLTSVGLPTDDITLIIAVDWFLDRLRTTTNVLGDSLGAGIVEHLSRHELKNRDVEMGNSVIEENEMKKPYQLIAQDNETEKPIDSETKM
T1 sequence (P43004 whole entry, the tested form may be a part): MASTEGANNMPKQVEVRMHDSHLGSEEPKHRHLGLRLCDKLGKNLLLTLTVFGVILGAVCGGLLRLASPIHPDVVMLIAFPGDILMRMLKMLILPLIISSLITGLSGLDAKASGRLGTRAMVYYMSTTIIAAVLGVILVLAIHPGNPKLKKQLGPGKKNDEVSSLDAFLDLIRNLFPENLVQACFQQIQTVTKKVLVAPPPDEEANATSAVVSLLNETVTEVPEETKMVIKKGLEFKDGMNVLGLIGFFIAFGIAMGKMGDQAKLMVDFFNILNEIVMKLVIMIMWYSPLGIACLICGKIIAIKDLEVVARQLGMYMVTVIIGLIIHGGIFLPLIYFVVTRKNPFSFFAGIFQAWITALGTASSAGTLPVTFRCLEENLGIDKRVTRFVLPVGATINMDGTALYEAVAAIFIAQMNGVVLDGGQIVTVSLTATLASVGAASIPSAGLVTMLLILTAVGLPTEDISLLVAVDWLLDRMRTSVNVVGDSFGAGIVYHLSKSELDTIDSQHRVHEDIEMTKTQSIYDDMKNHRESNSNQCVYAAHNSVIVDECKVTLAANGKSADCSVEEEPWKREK

Structure (SMILES): NC(CCCP(=O)(O)O)C(=O)O (racemic) [APV, (DL)-2-amino-5-phosphonovaleric acid, reference compound]
- cell death / surviving neurons ([1]; compound 100 μM): attenuated cell death
- cell death / surviving neurons ([2]; compound 100 μM): attenuate cell death

Structure (SMILES): CN1CCN(C(c2cccnc2)c2nnnn2CCc2ccccc2)CC1 (centres unmarked) [DA-023, 1-methyl-4-((1-phenethyl-1H-tetrazol-5-yl)(pyridin-3-yl)methyl)piperazine]
- potency on transport augmentation (dose response curve) ([3]; EAAT2-expressing COS-7 cells): nM range
- efficacy on transport augmentation ([3]; EAAT2-expressing COS-7 cells, dose response curve): < 150%
- effect on KM (affinity for the substrate) [4]: no effect on KM
- effect on Vmax (in words) [4]: increase in Vmax
- cell death / surviving neurons ([1]; compound 100 nM): attenuated cell death
- cell death / surviving neurons ([2]; compound 10 nM): attenuate cell death
- neuronal death (FJC+ cell numbers) in the hilus [5]: significant reduction in the neuronal death

Structure (SMILES): COc1ccc(C(c2nnnn2CCc2ccccc2)N2CCN(C3CCCCC3)CC2)cc1OC (centres unmarked) [DA-050, 1-cyclohexyl-4-((3,4-dimethoxyphenyl)(1-phenethyl-1H-tetrazol-5-yl)methyl)piperazine]
- EAAT1 Efficacy [6]: 150.00 ± 21.21%
- EC50 ([6]; top number of the cell): 46 ± 36.8 nM
- EAAT3 EC50 (nM) [7]: No Effect
- EC50 [3]: 0.5 ± 0.56 nM
- EAAT2 Efficacy [3]: 261.50 ± 40.30%

Structure (SMILES): CN1CCN(C(c2ccncc2)c2nnnn2CCc2ccccc2)CC1 (centres unmarked) [DA-058, 1-methyl-4-((1-phenethyl-1H-tetrazol-5-yl)(pyridin-4-yl)methyl)piperazine]
- EAAT1 Efficacy [6]: 186.0 ± 41.01%
- EC50 ([6]; top number of the cell): 2.24 ± 1.07 nM
- EAAT3 EC50 (nM) [7]: No Effect
- EC50 [3]: 0.4 ± 0.42 nM
- EAAT2 Efficacy [3]: 200.50 ± 58.60%

Structure (SMILES): COc1ccc2[nH]c(=O)c(C(c3nnnn3CCc3ccccc3)N3CCN(C4CCCCC4)CC3)cc2c1 (centres unmarked) [GT949]
- cell death / surviving neurons ([2]; compound 10 nM): attenuate cell death

Structure (SMILES): NCC1(CC(=O)O)CCCCC1 [Gabapentin, reference compound]
- analgesic response ([8]; 200 mg/kg): analgesic response

Structure (SMILES): CN1CCN(C(C(=O)NCCc2ccc(F)cc2)c2cccnc2)CC1 (centres unmarked) [NA-005, N-(4-fluorophenethyl)-2-(4-methylpiperazin-1-yl)-2-(pyridin-3-yl)acetamide]
- EAAT1 Efficacy [6]: 189 ± 9.89%

Structure (SMILES): CN1CCN(C(C(=O)NCCc2ccc(F)cc2)c2ccc(C#N)cc2)CC1 (centres unmarked) [NA-014, 2-(4-cyanophenyl)-N-(4-fluorophenethyl)-2-(4-methylpiperazin-1-yl)acetamide]
- analgesic response ([8]; 10 mg/kg): analgesic response
- EAAT1 EC50 (nM) ([6]; top number of the cell): No Effect
- neuronal survival ([9]; 100 μM L-glutamate for 24 h, co-treatment with 100 nM compound): neuroprotective effect
- neuronal survival with co-application of EAAT inhibitor TBOA ([9]; L-glutamate insult, compound plus TBOA): abolished by co-application of EAAT inhibitor TBOA
- EAAT3 EC50 (nM) [7]: No Effect
- Km ([10]; NA-014 100 nM): 52.5 ± 5.82 µM
- Vmax ([10]; NA-014 100 nM): 42.35 ± 1.44 pmol/well/min
- Km ([10]; NA-014 500 nM): 49.8 ± 8.3 µM
- Vmax ([10]; NA-014 500 nM): 72.76 ± 3.67 pmol/well/min
- KM versus vehicle (in words) ([10]; cultured glia cells pre-incubated with 100 nM and 500 nM): not statistically different

Structure (SMILES): CN1CCN(C(c2ccc(F)nc2)c2nnnn2CCc2ccccc2)CC1 (centres unmarked) [VY-3-285, 1-((6-fluoropyridin-3-yl)(1-phenethyl-1H-tetrazol-5-yl)methyl)-4-methylpiperazine]
- EAAT1 Efficacy [6]: 2.75 ± 3.18 222 ± 55.72%

Structure (SMILES): CN1CCN(C(c2ccc(O)nc2)c2nnnn2CCc2ccccc2)CC1 (centres unmarked) [VY-3-286, 5-((4-methylpiperazin-1-yl)(1-phenethyl-1H-tetrazol-5-yl)methyl)pyridin-2-ol]
- EAAT1 Efficacy [6]: 160.25 ± 27.22%
- EAAT3 Efficacy ([7]; bottom number of the cell): 130.50 ± 2.12%
